# In patent publication US8207128B2, “Polypeptide inhibiting transmigration of leukocytes or growth and/or metastasis of cancer cells, and fusion protein thereof” (Supadelixir Inc., priority 2005, dated 2012):
# Experiments:
# [1] = tested on: B16-F10-Luc-G5 cells (mouse melanoma cell line); assay: In vivo transmigration of cancer cells, B16-F10-Luc-G5 injected into tail veins, lung and liver nodules; conditions: nude mice; 100 μg i.p. at 2-day intervals for 15 days; control peptide SEQ ID NO: 27; FIG. 17
# Procedure: B16-F10-Luc-G5 cells (mouse melanoma cell line, Xenogen, U.S.A.) were injected into the tail veins of 10 nude mice (5 weeks old). The nude mice were divided into five mice for a control group and five mice for a test group. The control group was injected with a mixture of PBS with a peptide consisting of EEFDDAEEFDD (SEQ ID NO: 27) (control peptide) and the test group with a mixture of PBS with 100 μg of a peptide of SEQ ID NO: 26. The control peptide and the peptide of SEQ ID NO: 26 were intraperitoneally administered to the control group and the test group, respectively, at 2-day intervals for 15 days. Then, the nude mice were dissected and the lungs and livers were excised from the nude mice. Tumor nodules were counted.
# RA mice = assay: Migration of T cells, B cells and myeloid cells into the joint spaces of RA mice, synovial fluid flow cytometry; assay type: in vivo; conditions: dosing as in Experimental Example 3, similar to MTX-treated group, FIG. 7
# Procedure: The polypeptide of the present invention, a saline solution, or MTX was administered to RA mice in the same manner as in EXPERIMENTAL EXAMPLE 3, and synovial fluid was obtained from the joint spaces of the mice of all the experimental groups. After the total cell number in the synovial fluid was counted, flow cytometry analysis was performed in the same manner as in EXPERIMENTAL EXAMPLE 3 to measure the number of T cells (CD3^+), B cells (CD19^+), and myeloid cells (CD11b^+, Gr-1^+) migrated to the joint spaces. The results are illustrated in FIG. 7.
# mice with RA = assay: Transmigration of lymphocytes and myeloid cells in the spleens of RA mice, flow cytometry; assay type: in vivo; conditions: spleen, i.p. at 2-day intervals for 4 weeks, similar to MTX-treated group, FIG. 6
# Source text: A polypeptide of SEQ ID NO: 26 (40 MOOD) was intraperitoneally administered to mice with RA, which had been induced in the same manner in EXPERIMENTAL EXAMPLE 2, at 2-day intervals for 4 weeks. Normal mice, saline-treated RA mice with intraperitoneal injection of a saline solution, and MTX-treated RA mice with intraperitoneal injection of a solution of MTX (100 □) in a saline solution (100 □) were used as control groups. Spleen tissues were harvested from the mice of all the experimental groups and washed with RPMI 1640 media, and single cells were isolated. After the total number of the single cells were counted, the single cells were stained with monoclonal antibodies (anti-CD3^+, CD4^+, CD8^+, CD11^+, CD19^+, CD69^+, Gr-1^+) capable of labeling T cells (CD3^+, CD4^+, CD8^+), activated T cells (CD3^+, CD69^+), B cells (CD19^+), and myeloid cells (CD11^+, Gr-1^+), and flow cytometry analysis was performed. The number of lymphocytes and myeloid cells migrated to […] was measured by determining the number of the T cells, the activated T cells, the B cells, and the myeloid cells per total cell number, and the results are illustrated in FIG. 6.
substance,measurement,setting,value
"SEQ ID NO: 26: polypeptide derived from the mouse CD99, corresponds to the polypeptide of SEQ ID No: 14 derived from human CD99 (SGGISDSDLAD; listed as Mus musculus)",degree of spread of melanoma (lung and liver nodules) relative to control group,[1],about 40%
same,"number of T cells, B cells and myeloid cells migrated to joint spaces, relative to saline-treated group",RA mice,50-70%
same,"migrated cell numbers of T cells, activated T cells, B cells and myeloid cells as fraction of saline-treated group",mice with RA,about ⅔
